According to patent US20230381170A1, “METHOD FOR TREATING ALS/FTD THROUGH DEGRADATION OF RNA REPEAT EXPANSION” (University of Florida Research Foundation, Incorporated, priority 2020, published 2023):

System: r(G4C2)exp-containing intron 1
Assay: C9orf72 intron 1 RT-qPCR in c9ALS iPSC-derived spinal neurons
Type: cell-based, human
Description: iPSCs were differentiated into spinal neuron cells using a previously the previously described direct induced motor neuron (diMNs) differentiation protocol (58) with modifications. Briefly, iPSCs were plated into Matrigel-coated 100 mm dishes (30-40% confluence). Neuroepithelial induction was performed by replacing the iPSC maintenance medium with Stage 1 medium [47.5% IMDM (Iscove's Modified Dulbecco's Medium) medium, 47.5% F12 medium, 1% NEAA (Non-Essential Amino Acid) (Life Technologies), 2% B27 (Invitrogen), 1% N2, 1% PSA (Penicillin-Streptomycin-Amphotericin), 0.2 μM LDN193189 (Stemgent), 10 μM SB431542 ([…] Technologies) and 3 μM CHIR99021 (Sigma-Aldrich)]. After daily medium changes for 6 days, cells were detached with Accutase and seeded into 6-well plates (1.5×10^6 cells/well) in 3 mL Stage 2 medium. Cells were maintained in Stage 2 medium [Stage 1 medium supplemented with 0.1 μM All-trans RA (Sigma-Aldrich) and 1 μM *SAG (Cayman Chemicals)], with daily changes, through Day 11. […]
Measuring Levels of C9orf72 and C9orf72 Variants by RT-qPCR. […] RNA was extracted as described above and the expression of C9orf72 variants was determined by RT-qPCR. […] RNA was extracted as described above and the expression of C9orf72 variants was determined by RT-qPCR.

CCOC(=O)C1=C(Nc2ccccc2)S/C(=C\c2ccc(OCCOCCOCCOCCNC(=O)CCC(=O)N(CCOCCOCCOc3ccc4[nH]c5c(C)c6ccncc6c(C)c5c4c3)CCOCCOCCOc3ccc4[nH]c5c(C)c6ccncc6c(C)c5c4c3)c(O)c2)C1=O [Compound 7]
reduction of r(G4C2)exp-containing intron 1 abundance (50 nM): 45±11% | reduction of r(G4C2)exp-containing intron 1 abundance (500 nM): 64±10%
